Our source for the EC50 values is US9840481B2, “Allosteric modulators of nicotinic acetylcholine receptors” (MERCK SHARP & DOHME CORP., priority 2016, dated 2017).

Each structure is given as a SMILES string. Like-named read-outs stand apart in the source and are kept apart here.

The target in this experiment is T1, human α7 nAChR stably expressed in a HEK cell line (with human RIC-3) (Homo sapiens, UniProt P36544).
T1 construct: PrecisION hnAChR α7/RIC-3
The experiment can be described thus: Automated patch-clamp electrophysiology functional assay (Assay A), IonFlux HT, whole-cell population patch. The class given is cell-based. In short, it runs like this:
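Whole-cell population patch clamp (IonFlux HT) used HEK cells stably co-expressing human α7 and RIC-3, held at −60 mV at room temperature. Compounds were applied alone (agonism) or with 40 μM acetylcholine (potentiation), three ascending concentrations per recording. Currents were quantified relative to a 40 μM acetylcholine reference response, giving EC50.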
A general note: In patch-clamp work, channel activity is measured electrically.

[1] abbreviates: automated patch-clamp electrophysiology functional assay (Assay A), potency class by EC50, read-out: α7 nAChR Potency.
Setting [2] is: electrophysiology EC50, HEK cells expressing human α7/RIC-3, 40 μM acetylcholine, holding potential −60 mV, room temperature, read-out: α7 nAChR EC50.

T1 sequence (P36544 23-502): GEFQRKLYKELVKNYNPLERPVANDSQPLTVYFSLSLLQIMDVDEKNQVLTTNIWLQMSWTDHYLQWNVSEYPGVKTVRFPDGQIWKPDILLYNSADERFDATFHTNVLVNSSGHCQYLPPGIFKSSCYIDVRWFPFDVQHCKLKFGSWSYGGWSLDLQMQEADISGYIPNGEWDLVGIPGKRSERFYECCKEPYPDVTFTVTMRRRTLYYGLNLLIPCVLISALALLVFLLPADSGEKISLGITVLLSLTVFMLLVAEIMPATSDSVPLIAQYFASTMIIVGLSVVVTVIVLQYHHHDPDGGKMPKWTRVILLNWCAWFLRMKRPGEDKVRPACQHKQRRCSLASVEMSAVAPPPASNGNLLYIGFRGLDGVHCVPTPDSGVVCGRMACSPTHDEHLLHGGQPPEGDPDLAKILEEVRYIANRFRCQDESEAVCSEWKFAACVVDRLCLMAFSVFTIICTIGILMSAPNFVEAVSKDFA

`CC1(C)[C@@H](c2ccc(S(N)(=O)=O)cc2)[C@@H]1c1noc(-c2c(F)cccc2F)n1` [Example H8]: the EC50 is 100 to 500 nM under setting [1] and 110 nM under setting [2].
Turning to `NS(=O)(=O)c1ccc([C@@H]2C[C@H]2c2nc(-c3cccc(F)c3)cs2)cc1` [Example 14, 4-{(1R,2R)-2-[4-(3-Fluorophenyl)-1,3-thiazol-2-yl]cyclopropyl}benzenesulfonamide], the EC50 under setting [1] lay within 100 to 500 nM and the EC50 under setting [2] was found to be 200 nM.
For the compound `CC1(C)[C@@H](c2ccc(S(N)(=O)=O)cc2)[C@@H]1c1noc(-c2ccc(OCCF)nc2)n1` [Example I14], the EC50 under setting [1] was 500 to 5000 nM.
As to `Cc1sc([C@@H]2C[C@H]2c2ccc(S(N)(=O)=O)cc2)nc1-c1ccccc1` [Example 15, 4-[(1R,2R)-2-(5-Methyl-4-phenyl-1,3-thiazol-2-yl)cyclopropyl]benzenesulfonamide], the EC50 under setting [1] is not above 100 nM and the EC50 under setting [2] came out at 71 nM.
Turning to `CC1(C)C(c2ccc(S(N)(=O)=O)cc2)C1c1cc(C2CCCC2)on1` (stereo not drawn) [Example 34, 4-(trans-3-(5-Cyclopentylisoxazol-3-yl)-2,2-dimethylcyclopropyl)benzenesulfonamide], the EC50 runs as follows: under setting [1], 100 to 500 nM; under setting [2], 160 nM.
The matching figures for `CC1(C)[C@@H](c2ccc(S(N)(=O)=O)cc2)[C@@H]1c1noc(-c2cc(C(F)(F)F)c3ccccc3n2)n1` [Example I13]: 500 to 5000 nM and 3100 nM.
Regarding `Cc1ncccc1-c1noc([C@H]2[C@H](c3ccc(S(N)(=O)=O)cc3)C2(C)C)n1` [Example D15], the EC50 under setting [1] was 500 to 5000 nM.
Regarding `CC1(C)[C@H](c2ccc(S(N)(=O)=O)cc2)[C@H]1c1cn(-c2cccc(F)c2)nn1` [Example L5], the EC50 is 500 to 5000 nM under setting [1] and 770 nM under setting [2].
On the same counts, the results for `CC1C(c2ccc(S(N)(=O)=O)cc2)C1c1nc(-c2ccccc2)no1` (single isomer, unassigned; diastereomer 4) [Example 22, 4-(2-Methyl-3-(3-phenyl-1,2,4-oxadiazol-5-yl)cyclopropyl)benzenesulfonamide, diastereomer 4] are 100 to 500 nM and 120 nM.
As for `CC1(C)[C@H](c2ccc(S(N)(=O)=O)cc2)[C@H]1c1ncc(C2CCCC2)s1` [Example J9], the EC50 under setting [1] was 500 to 5000 nM.
In the case of `NS(=O)(=O)c1ccc([C@@H]2C[C@H]2c2nc(-c3ccccc3)no2)cc1` [Example C5], the EC50 under setting [1] fell in the range of 100 to 500 nM and the EC50 under setting [2] came out at 120 nM.
For the compound `NS(=O)(=O)c1ccc([C@H]2C[C@@H]2c2nc(-c3ccc(F)cc3F)no2)cc1` [Example A8], the EC50 under setting [1] fell in the range of 5000 to 50000 nM.
Regarding `CC1(C)[C@@H](c2ccc(S(N)(=O)=O)cc2)[C@@H]1c1nc(CC2CC2)no1` [Example D27], the EC50 runs as follows: under setting [1], 100 to 500 nM; under setting [2], 200 nM.
On the same counts, the results for `CC1(C)C(c2ccc(S(N)(=O)=O)cc2)C1c1cc(-c2cccc(F)c2)on1` (racemic) [Example M6] are 500 to 5000 nM and 2900 nM.
`CC1(C)[C@H](c2ccc(S(N)(=O)=O)cc2)[C@H]1c1nc(-c2cncc(F)c2)no1` [Example B2]: the EC50 under setting [1] is 500 to 5000 nM.
As to `CC(c1nc([C@H]2[C@H](c3ccc(S(N)(=O)=O)cc3)C2(C)C)no1)n1ccnc1` (some centres unmarked) [Example I11], the EC50 under setting [1] is 5000 to 50000 nM.
For the compound `NS(=O)(=O)c1ccc([C@@H]2C[C@H]2c2csc(-c3ccccc3)n2)cc1` [Example 25, 4-[(1R,2R)-2-(2-Phenyl-1,3-thiazol-4-yl)cyclopropyl]benzenesulfonamide], the EC50 reads like this: under setting [1], 500 to 5000 nM; under setting [2], 980 nM.
Take `NS(=O)(=O)c1ccc([C@H]2[C@H](c3nc(-c4ccccc4)no3)C2(F)F)cc1` [Example C21]: the EC50 is not above 100 nM under setting [1] and 83 nM under setting [2].
Take `Cn1ccc(-c2nc([C@H]3[C@H](c4ccc(S(N)(=O)=O)cc4)C3(C)C)no2)c1` [Example I10]: under setting [1], the EC50 lay in the range of 500 to 5000 nM.
On the same count and under the same terms, the result for `CC1(C)[C@@H](c2ccc(S(N)(=O)=O)cc2)[C@@H]1c1noc(-c2nc(-c3ccc(F)cc3)c[nH]2)n1` [Example I17] reads 500 to 5000 nM.
